Some test systems named below: MCF7 breast; SR leukemia; MDA-MB-231 breast; K-562 leukemia; HCT-15 colon; SK-OV-3 ovarian; BT-549 breast; EKVX NSCLC; KM12 colon; A549 NSCLC.
Holding throughout (experiment): NCI anticancer screen, dose series, 48 h

Ten compounds from PubChem BioAssay (NCI) can be followed below.

Several values for one entry are separate records, joined by “and”; a condition that tells them apart may be missing. Identical values can stand only once.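 1) Cells in 96-well plates. 2) Compound, 48 h, 5 concentrations. 3) Linear interpolation between surrounding doses. 4) Unreached endpoint = highest concentration. GI50 marks 50% less growth. TGI: concentration producing complete growth inhibition.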

With `O=C(Nc1cc(S(=O)(=O)c2ccc(Cl)cc2)ccc1Cl)c1cc(I)cc(I)c1O`, the GI50 was 18.4 µM in the test with MCF7 breast; 26 µM in the test on SR leukemia; 17.4 µM in the test on MDA-MB-231 breast; 16 µM in the test with K-562 leukemia; 16.5 µM in the test on HCT-15 colon; 17.2 µM in the test with SK-OV-3 ovarian. Also, the GI50 in the test on BT-549 breast is 19.9 µM; with EKVX NSCLC it was 20.2 µM; in the test with KM12 colon it was 14.2 µM; with A549 NSCLC, 19.3 µM. The TGI came to 36.9 µM with MCF7 breast; 60.1 µM with SR leukemia; 36.5 µM with MDA-MB-231 breast; 40.9 µM with K-562 leukemia; 32.7 µM with HCT-15 colon; 31.5 µM in the test with SK-OV-3 ovarian. The TGI in the test on BT-549 breast was 39.8 µM; in the test with EKVX NSCLC it was 44.5 µM; in the test on KM12 colon it was 27.4 µM; in the test with A549 NSCLC it was 38.2 µM.
As for `O=C(Nc1ccccc1O)c1ccc(CNC(=O)c2ccsc2Nc2ccnc(C(F)(F)F)c2)cc1`, the GI50 in the test on MCF7 breast was 2.03 µM; with SR leukemia, 2.81 µM; in the test with MDA-MB-231 breast it was 2.85 µM; in the test on K-562 leukemia it was 1.62 µM; in the test with HCT-15 colon, 3.31 µM; in the test on SK-OV-3 ovarian, 5.59 µM. Further, the GI50 was 1.89 µM in the test with BT-549 breast, 3.09 µM in the test with EKVX NSCLC, 2.84 µM with KM12 colon and 3.21 µM in the test on A549 NSCLC. The TGI in the test with MCF7 breast is 10.4 µM; in the test on SR leukemia, 29.1 µM; in the test on MDA-MB-231 breast, 13.2 µM; in the test with K-562 leukemia, more than 100 µM; in the test on HCT-15 colon it was 18.9 µM; with SK-OV-3 ovarian it was 45.6 µM. Besides, the TGI with BT-549 breast stood at 5.04 µM; with EKVX NSCLC it was 14.5 µM; with KM12 colon, 11.9 µM; in the test with A549 NSCLC, 12.5 µM.
As to `CCc1cccc(CC)c1/C=C/c1cncc(C(=O)NC)c1`, the GI50 is 7.74 µM in the test on MCF7 breast; 7.24 µM in the test with SR leukemia; 13.2 µM with MDA-MB-231 breast; 5.62 µM in the test on K-562 leukemia; 9.71 µM in the test on HCT-15 colon; 8.75 µM with SK-OV-3 ovarian. The GI50 is 8.95 µM with BT-549 breast, 14.2 µM with EKVX NSCLC, 9.02 µM with KM12 colon and 9.3 µM in the test on A549 NSCLC. Besides, the TGI with MCF7 breast, with SR leukemia, in the test with MDA-MB-231 breast, with K-562 leukemia, in the test with HCT-15 colon and with SK-OV-3 ovarian was more than 25 µM in each case. Moreover, the TGI in the test with BT-549 breast, in the test on EKVX NSCLC, with KM12 colon and in the test on A549 NSCLC was more than 25 µM throughout.
For `O=c1oc2ccc(F)cc2c(=O)n1-c1ccc(Br)cc1F`, the GI50 with MCF7 breast is 2.04 µM; in the test with SR leukemia, 0.578 µM; in the test with MDA-MB-231 breast it was 0.434 µM; in the test with K-562 leukemia, 0.422 µM; in the test with HCT-15 colon it was 1.29 µM; in the test on SK-OV-3 ovarian it was 0.427 µM. The GI50 in the test on BT-549 breast was 0.411 µM; in the test on EKVX NSCLC, 1.85 µM; in the test with KM12 colon, 2.23 µM; in the test with A549 NSCLC it was 2.29 µM. The TGI with MCF7 breast was more than 29.5 µM; with SR leukemia, more than 100 µM; in the test with MDA-MB-231 breast, 7.28 µM; in the test on K-562 leukemia it was more than 100 µM; with HCT-15 colon, 10.9 µM; in the test with SK-OV-3 ovarian, 6.25 µM. In addition, the TGI was 2.19 µM in the test on BT-549 breast, 9.74 µM with EKVX NSCLC, 6.16 µM in the test on KM12 colon and more than 100 µM in the test on A549 NSCLC.
For `Cc1ccc(/C=C2\CNC/C(=C\c3ccc(C)cc3)C2=O)cc1`, the TGI in the test on MCF7 breast is more than 100 µM; in the test with SR leukemia it was 2.87 µM and 1.83 µM; with MDA-MB-231 breast it was more than 24.6 µM; in the test with K-562 leukemia, 2.68 µM; in the test on HCT-15 colon it was 1.45 µM and 3.62 µM; in the test on SK-OV-3 ovarian it was 6.9 µM and 22.1 µM. Moreover, the TGI with BT-549 breast was 4.28 µM; in the test on EKVX NSCLC, 8.3 µM and 20.8 µM; in the test with KM12 colon, 1.55 µM and 3.32 µM; in the test with A549 NSCLC, 2.9 µM and > 27.1 µM. Also, the GI50 is 0.565 µM in the test on SR leukemia; 1.14 µM in the test with K-562 leukemia; 0.407 µM with HCT-15 colon; 3.81 µM in the test on SK-OV-3 ovarian; 2.85 µM in the test with EKVX NSCLC; 0.399 µM with KM12 colon. In the test with A549 NSCLC, the GI50 is 0.861 µM.
For `CC[C@@]1(O)C(=O)OCc2c1cc1n(c2=O)Cc2cc3c(N)cccc3nc2-1`, the GI50 in the test on MCF7 breast was 0.00482 µM; in the test with SR leukemia it was 0.00165 µM; in the test on K-562 leukemia it was 0.0277 µM; in the test on BT-549 breast, 0.0394 µM; in the test on KM12 colon, 0.0151 µM; in the test with A549 NSCLC, 0.0701 µM. In addition, the TGI is 4.85 µM with MCF7 breast; more than 19.9 µM in the test with MDA-MB-231 breast; more than 100 µM in the test with K-562 leukemia; 33.7 µM in the test with HCT-15 colon; 1.68 µM in the test with SK-OV-3 ovarian; 5.26 µM with BT-549 breast. Also, the TGI came out at 7.96 µM in the test on EKVX NSCLC, 11.6 µM in the test on KM12 colon and 2.31 µM in the test on A549 NSCLC.
Turning to `CCOCNc1ccc(N2C(=O)/C(=C/c3ccc(N(CC)CC)cc3)N=C2c2ccccc2)cc1`, the GI50 was 36.5 µM in the test on MCF7 breast; 6.5 µM in the test on SR leukemia; 13 µM in the test with MDA-MB-231 breast; 2.87 µM in the test with K-562 leukemia; 1.06 µM in the test on HCT-15 colon; 26.1 µM in the test on SK-OV-3 ovarian. Also, the GI50 in the test with BT-549 breast was 33.5 µM; in the test with EKVX NSCLC it was more than 100 µM; with KM12 colon it was 5.44 µM; in the test on A549 NSCLC it was 11.4 µM. Moreover, the TGI was more than 100 µM with MCF7 breast; more than 100 µM in the test on SR leukemia; 49.3 µM in the test with MDA-MB-231 breast; more than 100 µM with K-562 leukemia; more than 100 µM in the test with HCT-15 colon; 82.9 µM in the test with SK-OV-3 ovarian. Further, the TGI in the test with BT-549 breast, with EKVX NSCLC, in the test with KM12 colon and in the test with A549 NSCLC was more than 100 µM in each case.
As to `Cn1cnc([N+](=O)[O-])c1Sc1nc(N)nc2nc[nH]c12`, the GI50 in the test on MCF7 breast is 2.47 µM; in the test on SR leukemia, 0.682 µM; in the test with MDA-MB-231 breast, 4.88 µM; in the test with K-562 leukemia it was 4.2 µM; in the test on HCT-15 colon, 5.11 µM; in the test on SK-OV-3 ovarian it was 0.727 µM. Also, the GI50 was 5.08 µM in the test on BT-549 breast, 3.9 µM in the test on EKVX NSCLC, 3.94 µM in the test with KM12 colon and 13.1 µM with A549 NSCLC. Besides, the TGI in the test on MCF7 breast, with SR leukemia, with MDA-MB-231 breast, in the test on K-562 leukemia, in the test with HCT-15 colon and in the test with SK-OV-3 ovarian was more than 100 µM throughout. Further, the TGI in the test on BT-549 breast, in the test with EKVX NSCLC, in the test with KM12 colon and in the test with A549 NSCLC was more than 100 µM each time.
On to `COc1ccc(NC(=O)c2sc3nc4c(cc3c2N)CCCC4)cc1`, for which the GI50 with MCF7 breast was 0.348 µM; in the test on SR leukemia, 0.3 µM; with MDA-MB-231 breast it was 5.26 µM; in the test with K-562 leukemia, 0.309 µM; in the test on HCT-15 colon, 0.471 µM; in the test with SK-OV-3 ovarian, 1.92 µM. Further, the GI50 in the test on BT-549 breast is 0.41 µM; in the test on EKVX NSCLC, 1.13 µM; in the test on KM12 colon it was 0.612 µM; with A549 NSCLC it was 1.18 µM. Besides, the TGI in the test with MCF7 breast is more than 100 µM; in the test with SR leukemia, 16.3 µM; with MDA-MB-231 breast, more than 100 µM; with K-562 leukemia it was more than 100 µM; in the test on HCT-15 colon, more than 100 µM; in the test on SK-OV-3 ovarian, more than 100 µM. Further, the TGI with BT-549 breast was 13.9 µM; in the test with EKVX NSCLC it was more than 100 µM; in the test with KM12 colon, 82.9 µM; in the test on A549 NSCLC it was more than 100 µM.
For `COC(=O)[C@H](Cc1ccccc1)NC(=O)c1csc([C@@H](C[C@H](C(C)C)N(C)C(=O)[C@@H](NC(=O)[C@H]2CCCN2C)C2CC2)OC(C)=O)n1`, the GI50 with MCF7 breast is 0.124 µM; in the test on SR leukemia, 0.0103 µM; with MDA-MB-231 breast it was 0.577 µM; with K-562 leukemia, 0.113 µM; with HCT-15 colon it was 0.855 µM; with SK-OV-3 ovarian, 1.04 µM. Also, the GI50 in the test on BT-549 breast is 0.248 µM; in the test on EKVX NSCLC, 1.97 µM; with KM12 colon, 0.45 µM; with A549 NSCLC, 0.977 µM. Also, the TGI was more than 33.3 µM in the test on MCF7 breast; more than 33.3 µM in the test on SR leukemia; more than 12.9 µM in the test with MDA-MB-231 breast; more than 33.3 µM in the test with K-562 leukemia; more than 33.3 µM in the test on HCT-15 colon; more than 33.3 µM in the test on SK-OV-3 ovarian. The TGI was 7.85 µM in the test on BT-549 breast, more than 33.3 µM with EKVX NSCLC, more than 33.3 µM in the test on KM12 colon and more than 33.3 µM in the test with A549 NSCLC.
